Assay results reported in patent US11369583B2, “Long-acting prodrugs of rasagiline, preparing methods and uses thereof” (GUANGZHOU HENOVCOM BIOSCIENCE CO. LTD, priority 2017, dated 2022).
≈ marks a conversion by molar mass, not a printed value. Like-named read-outs stand apart in the source and are kept apart here.

Legend:
[1] = Solubility of prodrug compounds of Rasagiline in phosphate buffer pH 7.4; format: physicochemical
Excerpt: A melting point and solubility (phosphate buffer with pH of 7.4) of synthesized prodrug compounds of Rasagiline were detected, and the results are shown in table 1: […]

[2] = Pharmacokinetics experiment: Rasagiline in blood plasma after intramuscular injection of prodrug suspensions into beagles; format: in vivo; conditions: beagle, intramuscular injectable suspension
Experimental: One common male beagle was used for each group, and they were forbidden to eat for 12 hours before administering drugs, and drank water freely meanwhile. Injectable suspensions of Example 13, Example 15, Example 14, Example 20, Example 8 were intramuscularly injected in a dosage of 0.47 mg/kg Rasagiline (1.72 mg/kg, 1.56 mg/kg, 1.64 mg/kg, 1.80 mg/kg, 1.16 mg/kg of prodrug respectively after conversion).
Treatment of blood plasma sample: The blood plasma sample was placed in an ice bath; 30 μL of methanol and 20 μL of interior label (2 μg/mL apigenin dissolved in 50% methanol) were added into 200 μL of the blood plasma sample and mixed through vortex, and then 4 mL of ethyl acetate was added and mixed through vortex. After being centrifuged at 9000 g for 2 minutes, an organic phase was separated and dried in vacuum, and then 150 μL of methanol was added for re-dissolution. 30 μL of a prepared sample was taken for analyzing.
Data analysis: The sample was detected by LC-MS/MS, and analyzed by a DAS 2.0 software to calculate pharmacokinetic parameters according to blood drug concentration, providing parameters such as AUC (0-t), AUC(0-∞), MRT(0-t), MRT(0-∞), Cmax, Tmax, and t1/2, etc.

[3] = biological target: Monoamine oxidase (MAO-B) (Homo sapiens, UniProt P27338); conditions: monoamine oxidase inhibitor; stronger than Selegiline; cited from earlier work
Chain of Monoamine oxidase (MAO-B) (P27338 whole entry, species assumed): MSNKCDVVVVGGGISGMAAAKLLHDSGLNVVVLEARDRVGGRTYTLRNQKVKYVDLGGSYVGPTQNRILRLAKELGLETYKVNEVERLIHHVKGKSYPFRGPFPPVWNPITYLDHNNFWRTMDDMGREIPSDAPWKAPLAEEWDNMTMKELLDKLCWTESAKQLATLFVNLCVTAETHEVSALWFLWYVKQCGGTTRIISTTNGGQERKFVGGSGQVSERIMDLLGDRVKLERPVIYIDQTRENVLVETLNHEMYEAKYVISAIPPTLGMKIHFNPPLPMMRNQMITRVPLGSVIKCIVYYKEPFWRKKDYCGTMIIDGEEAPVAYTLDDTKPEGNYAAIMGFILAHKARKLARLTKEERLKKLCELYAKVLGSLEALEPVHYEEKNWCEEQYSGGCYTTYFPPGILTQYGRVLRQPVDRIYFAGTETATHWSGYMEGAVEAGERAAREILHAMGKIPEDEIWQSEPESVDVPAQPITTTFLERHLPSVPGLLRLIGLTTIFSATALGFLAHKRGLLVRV

[4] = pH 7.4, aqueous buffer, phosphate buffer with pH of 7.4, read-out: SOLUBILITY

| Compound | solubility [1, 4] | melting point | other results |
| --- | --- | --- | --- |
| C#CCN(C(=O)OCOC(=O)CCCCCCCCCCCCCCC)[C@@H]1CCc2ccccc21 [Example 1, methyl ((Rasagiline-N-formyl)oxy)-palmitate] | < 5 µg/mL | < 25 °C |  |
| C#CCN(C(=O)OCOC(=O)Cc1cccc2ccccc12)[C@@H]1CCc2ccccc21 [Example 2, methyl ((Rasagiline-N-formyl)oxy)-naphthalene acetate] | < 5 µg/mL | 66 to 70 °C |  |
| C#CCN(C(=O)OCOC(=O)CCCCCCCCCCCCCCCCC)[C@@H]1CCc2ccccc21 [Example 3, methyl ((Rasagiline-N-formyl)oxy)-stearate] | < 5 µg/mL | < 25 °C |  |
| C#CCN(C(=O)OCOC(=O)C(C)(C)C)[C@@H]1CCc2ccccc21 [Example 4, methyl ((Rasagiline-N-formyl)oxy)-pivalate] | < 5 µg/mL | < 25 °C |  |
| C#CCN(C(=O)OCOC(=O)CCCCCCCCCCCCCCCCCCC)[C@@H]1CCc2ccccc21 [Example 5, methyl ((Rasagiline-N-formyl)oxy)-icosanoate] | < 5 µg/mL | < 25 °C |  |
| C#CCN(C(=O)OCOC(=O)CC[C@@H](C)C1CCC2C3C[C@H](O)[C@@H]4C[C@H](O)CC[C@]4(C)C3CC[C@@]21C)[C@@H]1CCc2ccccc21 (some centres unmarked) [Example 6, methyl ((Rasagiline-N-formyl)oxy)-hyodeoxycholate] |  | < 50 °C | solubility ([1]; pH 7.4, aqueous buffer): < 5 µg/mL |
| C#CCN(C(=O)OCOC(=O)CCCC[C@@H]1SC[C@@H]2NC(=O)N[C@@H]21)[C@@H]1CCc2ccccc21 [Example 7, methyl ((Rasagiline-N-formyl)oxy)-biotin methyl ester] | 31.7 µg/mL (≈ 67.2 µM) |  |  |
| C#CCN(C(=O)OCOC(=O)/C=C/c1ccc(O)c(OC)c1)[C@@H]1CCc2ccccc21 [Example 8, methyl ((Rasagiline-N-formyl)oxy)-ferulate] | < 5 µg/mL | 130.4 to 133.8 °C |  |
| C#CCN(C(=O)OCOC(=O)CC[C@@H](C)C1CCC2C3C(CC[C@@]21C)[C@@]1(C)CC[C@@H](O)C[C@H]1C[C@H]3O)[C@@H]1CCc2ccccc21 (some centres unmarked) [Example 9, methyl ((Rasagiline-N-formyl)oxy)-chenodeoxycholate] |  | < 50 °C | solubility ([1]; pH 7.4, aqueous buffer): < 5 µg/mL |
| C#CCN(C(=O)OCOC(=O)CC[C@@H](C)C1CCC2C3C(CC[C@@]21C)[C@@]1(C)CC[C@@H](O)C[C@H]1C[C@@H]3O)[C@@H]1CCc2ccccc21 (some centres unmarked) [Example 10, methyl ((Rasagiline-N-formyl)oxy)-ursodesoxycholate] |  | < 50 °C | solubility ([1]; pH 7.4, aqueous buffer): < 5 µg/mL |
| C#CCN(C(=O)OCOC(=O)CC[C@@H](C)C1CCC2C3CC[C@@H]4C[C@H](O)CC[C@]4(C)C3C[C@H](O)[C@@]21C)[C@@H]1CCc2ccccc21 (some centres unmarked) [Example 11, methyl ((Rasagiline-N-formyl)oxy)-deoxycholate] |  | < 50 °C | solubility ([1]; pH 7.4, aqueous buffer): < 5 µg/mL |
| C#CCN[C@@H]1CCc2ccccc21 [Rasagiline] |  |  | inhibiting effect compared to Selegiline [3]: 5-10 times |
| methyl ((Rasagiline-N-formyl)oxy)4-stearamidohexanoate [Example 18] |  |  | solubility ([1]; pH 7.4): <5 µg/mL |

Now from value to compound, other results behind:

| solubility [1, 4] | melting point | Compound | other results |
| --- | --- | --- | --- |
| < 5 µg/mL | 77.2 to 80.8 °C | C#CCN(C(=O)OCOC(=O)CCCCCNC(=O)CCCCCCCCCCCCCCCCCCC)[C@@H]1CCc2ccccc21 [Example 12, methyl ((Rasagiline-N-formyl)oxy)-icosanamidohexanoate] |  |
| < 5 µg/mL | 80 to 82 °C | C#CCN(C(=O)OCOC(=O)CCCNC(=O)CCCCCCCCCCCCCCCCCCC)[C@@H]1CCc2ccccc21 [Example 13, methyl ((Rasagiline-N-formyl)oxy)-icosanamidobutanoate] | release of the prodrug and conversion into Rasagiline (in words) [2]: steadier |
| < 5 µg/mL | 76 to 78 °C | C#CCN(C(=O)OCOC(=O)CCCNC(=O)CCCCCCCCCCCCCCCCC)[C@@H]1CCc2ccccc21 [Example 14, methyl ((Rasagiline-N-formyl)oxy)-stearamidobutanoate] |  |
| < 5 µg/mL | 73 to 75 °C | C#CCN(C(=O)OCOC(=O)CCCNC(=O)CCCCCCCCCCCCCCC)[C@@H]1CCc2ccccc21 [Example 15, methyl ((Rasagiline-N-formyl)oxy)-palmitamidobutanoate] |  |
| < 5 µg/mL | 56.1 to 59.4 °C | C#CCN(C(=O)OCOC(=O)CCCNC(=O)CCCCCCCCCCC)[C@@H]1CCc2ccccc21 [Example 16, methyl ((Rasagiline-N-formyl)oxy)4-dodecanamidobutanoate] |  |
| < 5 µg/mL | 66.3 to 71.8 °C | C#CCN(C(=O)OCOC(=O)CCCNC(=O)CCCCCCCCCCCCC)[C@@H]1CCc2ccccc21 [Example 17, methyl ((Rasagiline-N-formyl)oxy)4-tetradecanamidobutanorate] |  |
| < 5 µg/mL | 55.4 to 56.2 °C | C#CCN(C(=O)OCOC(=O)CCCNC(=O)CCCCCCCCCCCCCCCCCCCCC)[C@@H]1CCc2ccccc21 [Example 20, methyl ((Rasagiline-N-formyl)oxy)4-docosanamidobutanoate] | release of the prodrug and conversion into Rasagiline (in words) [2]: steadier |
| < 5 µg/mL | 58.3 to 58.9 °C | C#CCN(C(=O)OCOC(=O)CCCCNC(=O)CCCCCCCCCCCCCCC)[C@@H]1CCc2ccccc21 [Example 21, methyl ((Rasagiline-N-formyl)oxy)5-palmitamidopentanoate] |  |
| < 5 µg/mL | 75.3 to 77.1 °C | C#CCN(C(=O)OCOC(=O)CCCCNC(=O)CCCCCCCCCCCCCCCCC)[C@@H]1CCc2ccccc21 [Example 22, methyl ((Rasagiline-N-formyl)oxy)5-stearamidopentanoate] |  |
| < 5 µg/mL |  | C#CCN(C(=O)OCOC(=O)CCC(=O)NCCCCCCCCCCCCCCCCCC)[C@@H]1CCc2ccccc21 [Example 23, methyl ((Rasagiline-N-formyl)oxy)4-octadecylamidosuccinate] |  |
